Measured values as given in article PMC6412891, “Synthesis and Biological Evaluation of Novel Thiazolyl-Coumarin Derivatives as Potent Histone Deacetylase Inhibitors with Antifibrotic Activity” (Molecules, 2019).
Where two headings read alike, the source gives them in different places.

Assays:
CFs = system: CFs; design: method as in PMID 24631770, PMID 24374140; settings: cited from earlier work
[1] = system: neonatal rat cardiac fibroblasts (CFs); test: FBS-induced cardiac fibroblast proliferation assay (Alamar Blue); type: cell-based; settings: 10% FBS-induced CF proliferation, 48 h, read-out: Inhibition percentage of cell proliferation
Description: CFs were treated for 48 h with 10% fetal bovine serum (FBS), to induce CFs proliferation in presence/absence of each new CTz derivatives in a concentration range of 1–10 μM. In Table 4, the inhibition percentage of cell proliferation for each concentration of the synthesized compounds are shown. All derivatives inhibited CFs proliferation induce by serum.
Sprague Dawley rats were obtained from the Animal Breeding Facility of the School of Chemical and Pharmaceutical Sciences at the University of Chile. All studies followed the Guide for the Care and Use of Laboratory Animals published by the US National Institutes of Health (NIH Publication 8th, 2011), and experimental protocols were approved by the University of Chile Institutional Ethics Review Committee. CF were isolated from of 2 or 3–day–old Sprague-Dawley rats and cultured as described previously. Briefly, the neonatal rats were decapitated and their hearts were extracted under aseptic environment. Atria were removed and ventricles were cut into small pieces (~1–2 mm) for posterior colagenase II digestion. The digestion yield was separated by 10 min centrifugation at 89×g. The pellet was resuspended in 10 mL of Dulbecco’s Modified Eagle’s Medium/Nutrient F-12 (DMEM-F12) supplemented with 10% FBS and antibiotics (100 μg/mL streptomycin and 100 units/mL penicillin) and cultured in a humid atmosphere of 5% CO2 and 95% O2 at 37°C until confluence (5 days). The purity of the CFs population was assessed through the expression of several markers. CFs had positive staining against vimentin (Santa Cruz Biotechnology), while being negative against sarcomeric actin and desmin (Sigma-Aldrich). Experiments were performed on cells at passage 1. […]
To evaluate cytotoxicity, CFs were seeded in 12 microwell plates at a ratio of 2 × 10^4 cell/cm^2, cultured in DMEM–F12 medium + 10% FBS, which was subsequently replaced by DMEM–F12. After 24 h of serum starvation derivatives were applied at proper times and concentrations in accordance to experimental procedures. Cell viability assays were carried out using Alamar Blue®, a nontoxic, cell permeable non fluorescent compound that is blue in color. Viable cells reduce resazurin to resorufin, which produces very bright red fluorescence which is used as a quantitative cell viability measure. […] The fluorescence of Alamar Blue® was read using microplate reader at 570 excitation and emission to 595 nm. Cell survival was expressed as percentage over the untreated cells. […] Cell proliferation was quantified by Alamar Blue®, according to protocol mentioned before. Cell proliferation was expressed as percentage over the control FBS treated cells.

[2] = system: HDACs HeLa cells nuclear extract; test: HDAC inhibitory activity, fluorometric kit, HeLa cell nuclear extract; type: biochemical, human; settings: HeLa cell nuclear extract as HDAC source
HDAC6 human recombinant = target: T1, HDAC6 human recombinant (Homo sapiens, UniProt Q9UBN7); test: HDAC6 inhibitory activity, fluorometric kit; type: biochemical; settings: Class II
T1 construct: purchased Enzo Life Science BML-AK516
T1 sequence (Q9UBN7 1-1215): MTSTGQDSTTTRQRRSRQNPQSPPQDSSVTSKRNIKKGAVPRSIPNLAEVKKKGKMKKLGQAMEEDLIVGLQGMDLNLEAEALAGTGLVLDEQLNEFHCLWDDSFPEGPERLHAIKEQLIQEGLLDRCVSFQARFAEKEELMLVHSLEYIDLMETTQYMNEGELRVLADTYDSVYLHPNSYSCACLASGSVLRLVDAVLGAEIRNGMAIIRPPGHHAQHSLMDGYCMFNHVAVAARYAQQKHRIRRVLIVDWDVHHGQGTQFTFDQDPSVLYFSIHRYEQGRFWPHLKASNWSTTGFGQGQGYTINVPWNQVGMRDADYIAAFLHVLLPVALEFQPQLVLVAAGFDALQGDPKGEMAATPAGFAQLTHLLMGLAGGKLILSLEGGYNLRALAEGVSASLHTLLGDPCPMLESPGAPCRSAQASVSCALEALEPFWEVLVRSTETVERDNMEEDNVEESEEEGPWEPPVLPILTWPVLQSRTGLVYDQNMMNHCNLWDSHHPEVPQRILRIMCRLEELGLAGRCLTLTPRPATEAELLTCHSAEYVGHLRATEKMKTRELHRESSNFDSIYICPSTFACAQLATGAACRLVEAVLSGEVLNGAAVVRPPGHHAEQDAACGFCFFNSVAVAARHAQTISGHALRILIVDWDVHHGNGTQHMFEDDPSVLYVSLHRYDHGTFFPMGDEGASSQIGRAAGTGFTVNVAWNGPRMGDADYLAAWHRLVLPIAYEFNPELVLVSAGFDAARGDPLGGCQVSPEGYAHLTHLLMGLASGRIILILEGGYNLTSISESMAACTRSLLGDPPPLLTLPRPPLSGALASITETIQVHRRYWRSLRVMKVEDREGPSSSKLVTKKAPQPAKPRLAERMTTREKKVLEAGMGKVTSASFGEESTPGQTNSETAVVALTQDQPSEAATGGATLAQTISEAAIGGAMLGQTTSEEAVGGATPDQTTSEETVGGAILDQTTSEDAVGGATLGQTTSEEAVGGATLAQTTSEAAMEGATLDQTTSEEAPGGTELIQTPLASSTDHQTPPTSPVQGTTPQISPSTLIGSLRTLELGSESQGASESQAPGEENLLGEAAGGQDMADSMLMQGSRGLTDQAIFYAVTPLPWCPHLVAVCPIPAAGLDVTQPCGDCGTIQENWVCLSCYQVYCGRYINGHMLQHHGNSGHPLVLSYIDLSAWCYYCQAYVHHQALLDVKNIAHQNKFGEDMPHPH

HDAC1 human recombinant = target: T2, HDAC1 human recombinant (Homo sapiens, UniProt Q13547); test: HDAC1 inhibitory activity, fluorometric kit; type: biochemical; settings: Class I
T2 construct: purchased Enzo Life Science BML-AK511

[3] = Cytotoxicity assay (Alamar Blue) in cardiac fibroblasts; type: cell-based, rat; settings: Sprague-Dawley, rat, primary neonatal rat cardiac fibroblasts (CFs), CFs treated for 48 h
Description: (§1) CFs were treated for 48 h with all the new CTz derivatives in a broad concentration range (100 μM^−1 mM), and their cytotoxicity was then evaluated. In Table 3 cytotoxic concentration 50 (CC50) values for each of the synthesized compounds are shown. […] When comparing the different ZBG the series 5 is the least cytotoxic for CFs, while series 8 was the most cytotoxic.
(§2) Sprague Dawley rats were obtained from the Animal Breeding Facility of the School of Chemical and Pharmaceutical Sciences at the University of Chile. All studies followed the Guide for the Care and Use of Laboratory Animals published by the US National Institutes of Health (NIH Publication 8th, 2011), and experimental protocols were approved by the University of Chile Institutional Ethics Review Committee. CF were isolated from of 2 or 3–day–old Sprague-Dawley rats and cultured as described previously. Briefly, the neonatal rats were decapitated and their hearts were extracted under aseptic environment. Atria were removed and ventricles were cut into small pieces (~1–2 mm) for posterior colagenase II digestion. The digestion yield was separated by 10 min centrifugation at 89×g. The pellet was resuspended in 10 mL of Dulbecco’s Modified Eagle’s Medium/Nutrient F-12 (DMEM-F12) supplemented with 10% FBS and antibiotics (100 μg/mL streptomycin and 100 units/mL penicillin) and cultured in a humid atmosphere of 5% CO2 and 95% O2 at 37°C until confluence (5 days). The purity of the CFs population was assessed through the expression of several markers. CFs had positive staining against vimentin (Santa Cruz Biotechnology), while being negative against sarcomeric actin and desmin (Sigma-Aldrich). Experiments were performed on cells at passage 1. Cells were cultured in 35-mm well plates and serum starved for 24 h prior to stimulation.
(§3) To evaluate cytotoxicity, CFs were seeded in 12 microwell plates at a ratio of 2 × 10^4 cell/cm^2, cultured in DMEM–F12 medium + 10% FBS, which was subsequently replaced by DMEM–F12. After 24 h of serum starvation derivatives were applied at proper times and concentrations in accordance to experimental procedures. Cell viability assays were carried out using Alamar Blue®, a nontoxic, cell permeable non fluorescent compound that is blue in color. Viable cells reduce resazurin to resorufin, which produces very bright red fluorescence which is used as a quantitative cell viability measure. 10 μL of 0.2 mg/mL Alamar Blue® was added into each well followed by incubation for 24 h. The fluorescence of Alamar Blue® was read using microplate reader at 570 excitation and emission to 595 nm. Cell survival was expressed as percentage over the untreated cells. To evaluate CFs proliferation assay, cells were seeded as mentioned before, and after serum starvation, they were stimulated by 10% fetal bovine serum (FBS), in presence/absence of CTz derivatives for […], at concentrations according to experiment. Cell proliferation was quantified by Alamar Blue®, according to protocol mentioned before. Cell proliferation was expressed as percentage over the control FBS treated cells.

HDACs = settings: read-out: IC50 HDAC inhibition, cited from earlier work
[4] = system: neonatal rat cardiac fibroblasts (CFs); test: Cytotoxicity assay (Alamar Blue) in cardiac fibroblasts; type: cell-based; settings: CFs treated for 48 h
Description: as §1, §2, §3

T2 sequence (Q13547 whole entry): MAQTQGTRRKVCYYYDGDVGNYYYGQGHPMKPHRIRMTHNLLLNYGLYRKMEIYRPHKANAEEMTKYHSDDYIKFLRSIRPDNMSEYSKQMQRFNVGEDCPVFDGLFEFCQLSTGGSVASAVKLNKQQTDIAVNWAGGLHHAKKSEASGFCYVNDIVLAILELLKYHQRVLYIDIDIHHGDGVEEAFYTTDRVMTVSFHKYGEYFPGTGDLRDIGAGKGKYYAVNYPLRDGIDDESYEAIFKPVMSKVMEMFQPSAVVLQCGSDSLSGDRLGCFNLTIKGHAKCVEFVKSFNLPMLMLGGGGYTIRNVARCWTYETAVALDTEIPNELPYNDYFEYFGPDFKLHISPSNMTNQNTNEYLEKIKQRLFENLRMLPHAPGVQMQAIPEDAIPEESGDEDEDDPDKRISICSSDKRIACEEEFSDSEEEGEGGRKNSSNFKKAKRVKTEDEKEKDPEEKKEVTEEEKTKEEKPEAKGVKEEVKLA

Structure (SMILES): CCC(=O)CCCCC[C@@H]1NC(=O)[C@H]2CCCCN2C(=O)[C@H]([C@@H](C)CC)NC(=O)[C@H](Cc2cn(OC)c3ccccc23)NC1=O [apicidin]
- concentration shown to inhibit the proliferation of CFs (CFs): 3 µM

Structure (SMILES): COc1ccc2oc(=O)c(-c3csc(NC(=O)CCCCC4CCSS4)n3)cc2c1 (stereo not drawn) [Compound 5c, 5-[1,2]-Dithiolan-3-yl-N-[4-(6-methoxy-2-oxo-2H-chromen-3-yl)-thiazol-2-yl]-pentanamide]
- inhibition at 1 µM [1]: 67 ± 8.3%
- inhibition at 5 µM [1]: 83.2 ± 6.8%
- inhibition at 10 µM [1]: 91.2 ± 3.2%
- IC50 [2]: 0.05 ± 0.0017 µM
- melting point: 83 to 84 °C
- IC50 (HDAC6 human recombinant): 0.0841 ± 0.0029 µM
- IC50 (HDAC1 human recombinant): 0.0397 ± 0.0013 µM
- CC50 at 48 h [3]: 171 ± 6.1 µM

Structure (SMILES): O=C(/C=C/c1ccc(O)c(O)c1)O[C@@H]1C[C@](O)(C(=O)O)C[C@@H](O)[C@H]1O [chlorogenic acid]
- IC50 (HDACs; catecholic derivatives): 375 µM

Structure (SMILES): O=C(O)/C=C/c1ccc(O)c(O)c1 [caffeic acid]
- IC50 (HDACs; catecholic derivatives): 2540 µM

Structure (SMILES): Nc1ccccc1NC(=O)c1ccc(CNc2nccc(-c3cccnc3)n2)cc1 [mocetinostat]
- concentration shown to inhibit the proliferation of CFs (CFs): 1 µM

Structure (SMILES): O=C(O)CCCc1ccccc1 [phenylbutyric acid]
- IC50 (HDACs; short chain fatty acids): 620 µM

Structure (SMILES): CCCC(CCC)C(=O)O [valproic acid]
- IC50 (HDACs; short chain fatty acids): 140 µM

Structure (SMILES): COc1ccc2oc(=O)c(-c3csc(NC(=O)CCCCC(=O)NO)n3)cc2c1 [Compound 8c, 5-[4-(6-Methoxy-2-oxo-2H-chromen-3-yl)-thiazol-2-yl-carbamoyl]-N-hydroxypentanamide]
- inhibition at 1 µM [1]: 69.7 ± 9.1%
- inhibition at 5 µM [1]: 81.8 ± 5.5%
- inhibition at 10 µM [1]: 97.7 ± 4.7%
- IC50 [2]: 0.0415 ± 0.0027 µM
- melting point: 125 to 127 °C (dec.)
- IC50 (HDAC6 human recombinant): 0.0626 ± 0.0023 µM
- IC50 (HDAC1 human recombinant): 0.0465 ± 0.0022 µM
- CC50 at 48 h [3]: 86.5 ± 5.9 µM

Structure (SMILES): O=C(CCCCC(=O)Nc1nc(-c2cc3cc(Br)ccc3oc2=O)cs1)NO [Compound 8b, 5-[4-(6-Bromo-2-oxo-2H-chromen-3-yl)-thiazol-2-yl-carbamoyl]-N-hydroxypentanamide]
- inhibition at 1 µM [1]: 72.7 ± 3.9%
- inhibition at 5 µM [1]: 94.4 ± 7%
- inhibition at 10 µM [1]: 104 ± 2.8%
- IC50 [2]: 0.0571 ± 0.0045 µM
- IC50 (HDAC6 human recombinant): 0.0802 ± 0.0037 µM
- IC50 (HDAC1 human recombinant): 0.0454 ± 0.0026 µM
- CC50 at 48 h [3]: 72.4 µM
- CC50 [4]: 72.5 ± 11.6 µM
